In test [1] the test system is platelet aggregation (PAF). Nature of the test: Inhibitory action on PAF-induced rabbit platelet aggregation. The note with it: Oryctolagus cuniculus, read-out: inhibitory percentage (platelet aggregation); for inhibition at 3 µM: 3 × 10^-6 M; for inhibition at 0.3 µM: 3 × 10^-7 M; for inhibition at 0.03 µM: 3 × 10^-8 M. Type of test: cell-based. The method, then:
Blood was collected directly from the hearts of male rabbits using a syringe containing, as an anticoagulant, 3.15% citric acid (one part to 9 parts of blood). The blood was subjected to centrifuge at 800 rpm for ten minutes at room temperature to obtain platelet rich plasma (PRP). The remaining blood was further subjected to centrifuge at 3000 rpm for ten minnutes to separate platelet poor plasma (PPP) as the supernatant. PRP was diluted with PPP, and the number of platelets was adjusted to about 500,000/ μl. This PRP(250 μl) was stirred for two minutes at 37° C., and there was added a test sample, and the mixture was stirred for further two minutes, followed by addition of PAF of a given concentration. Platelet aggregation was examined by means of a platelet-agglutometer (manufactured by Rika Denki). Platelet aggregation preventing action of the test sample was determined based on the maximum percent light transmission (maximum percent. agglutination).

The subject of another test is PAF-induced hypotension. Nature of the test: Inhibitory action on PAF-induced hypotension in rats. It counts as in vivo, rat (Sprague-Dawley). The note with it: Rattus norvegicus, read-out: Inhibitory Rate (Lowering of Blood Pressure); for inhibition in vivo at 0.01 mg/kg / inhibition in vivo at 0.1 mg/kg: iv; for inhibition in vivo at 1 mg/kg / inhibition in vivo at 3 mg/kg / inhibition in vivo at 10 mg/kg: oral. The protocol: Sprague-Dawley male rats, each weighing about 250 g, were subjected to the experiment. The rats were cannulated on the side of femoral artery for measuring the blood pressure, and on the side of femoral vein for administering the drug. The blood pressure was measured through a pressure transducer and recorded. First, PAF (1 μg/kg) was administered intravenously (i.v.) to examine the extent of lowering of blood pressure. Then, the test samples were administered intravenously or orally. […]
The inhibitory action on PAF-induced hypotension (% inhibition) is indicated as the ratio of blood pressure-lowering degree (Δ mmHg) induced by PAF after administration of test samples relative to blood pressure-lowering degree (Δ mmHg) induced by PAF before administration of test samples.

Where two headings read alike, the source gives them in different places.

For the compound `CCC[n+]1cc(Cl)cc(C(=O)N(CCC(=O)NCCOC(=O)N2CCc3ccccc3C2)c2ccccc2)c1` [Production Example 88, 5-Chloro-3-[N-[2-[[2-(1,2,3,4-tetrahydroisoquinolyl)carbonyloxy]ethyl]carbamoyl]ethyl-N-phenyl]carbamoyl-1-propylpyridinium chloride], the inhibition at 3 µM in test [1] was 100%. In addition, in test [1], the inhibition at 0.3 µM was found to be 100%. The inhibition at 0.03 µM in test [1] stood at 33%. Besides, the inhibition in vivo at 0.01 mg/kg in the test on PAF-induced hypotension (1 hr.) was determined as 59%; in the test with PAF-induced hypotension (2 hr.), 55%; with PAF-induced hypotension (4 hr.), 40%; in the test with PAF-induced hypotension (6 hr.) it was 25%; in the test with PAF-induced hypotension (8 hr.), 19%; in the test on PAF-induced hypotension (5 min, i.v., 5 min.), 95%. Also, the inhibition in vivo at 1 mg/kg in the test on PAF-induced hypotension (1 hr.) amounted to 70%; in the test on PAF-induced hypotension (2 hr.), 75%; in the test on PAF-induced hypotension (4 hr.), 73%; in the test with PAF-induced hypotension (6 hr.) it was 61%; in the test with PAF-induced hypotension (8 hr.) it was 58%. The inhibition in vivo at 3 mg/kg with PAF-induced hypotension (1 hr.) was 93%; with PAF-induced hypotension (2 hr.), 95%; in the test on PAF-induced hypotension (4 hr.), 98%; in the test with PAF-induced hypotension (6 hr.) it was 83%; with PAF-induced hypotension (8 hr.) it was 85%.

Turning to `CCC[n+]1cc(Br)cc(C(=O)N(CCC(=O)NCCNC(=O)c2cccc3ccccc23)c2ccccc2)c1` [Production Example 108, 5-Bromo-3-[N-[2-[2-(1-naphthoylamino)ethyl]carbamoyl]ethyl-N-phenyl]carbamoyl-1-propylpyridinium chloride], the inhibition at 3 µM in test [1] came out at 100%. Besides, in test [1], the inhibition at 0.3 µM amounted to 37%. Besides, the inhibition at 0.03 µM in test [1] worked out at 5%. Further, the inhibition in vivo at 0.1 mg/kg is 100% in the test with PAF-induced hypotension (1 hr.); 97% in the test on PAF-induced hypotension (2 hr.); 75% in the test with PAF-induced hypotension (4 hr.); 58% with PAF-induced hypotension (6 hr.); 45% in the test on PAF-induced hypotension (8 hr.); 100% in the test on PAF-induced hypotension (5 min, i.v., 5 min.). Further, the inhibition in vivo at 1 mg/kg came to 64% in the test on PAF-induced hypotension (1 hr.); 61% in the test with PAF-induced hypotension (2 hr.); 55% in the test with PAF-induced hypotension (4 hr.); 51% with PAF-induced hypotension (6 hr.); 42% with PAF-induced hypotension (8 hr.). Besides, the inhibition in vivo at 3 mg/kg was 92% with PAF-induced hypotension (1 hr.); 86% in the test with PAF-induced hypotension (2 hr.); 94% with PAF-induced hypotension (4 hr.); 94% in the test with PAF-induced hypotension (6 hr.); 72% with PAF-induced hypotension (8 hr.).

On to `CCC[n+]1cc(Br)cc(C(=O)N(CCC(=O)NCCNS(=O)(=O)c2ccc3ccccc3c2)c2ccccc2)c1` [Production Example 98, 5-Bromo-3-[N-[2-[2-(2-naphthylsulfonamidoethyl]carbamoyl]ethyl-N-phenyl]carbamoyl-1-propylpyridinium chloride], for which the inhibition at 3 µM in test [1] amounted to 100%. For the same compound, the inhibition at 0.3 µM in test [1] came to 100%. Besides, in test [1], the inhibition at 0.03 µM is 16%. Moreover, the inhibition in vivo at 1 mg/kg in the test with PAF-induced hypotension (1 hr.) came out at 70%; with PAF-induced hypotension (2 hr.), 74%; with PAF-induced hypotension (4 hr.), 74%; in the test on PAF-induced hypotension (6 hr.) it was 70%; with PAF-induced hypotension (8 hr.), 69%. Moreover, the inhibition in vivo at 3 mg/kg in the test on PAF-induced hypotension (1 hr.) stood at 87%; in the test on PAF-induced hypotension (2 hr.), 91%; in the test with PAF-induced hypotension (4 hr.), 93%; in the test on PAF-induced hypotension (6 hr.) it was 93%; in the test on PAF-induced hypotension (8 hr.) it was 89%.

With `CCC[n+]1cc(Br)cc(C(=O)N(CCOC(=O)NCCCOC(=O)Nc2cccc3ccccc23)c2ccccc2)c1` [Production Example 52, 5-bromo-3-[N-2-[3-(1-naphthylcarbamoyloxy)propyl]carbamoyloxy]ethyl-N-phenyl]carbamoyl-1-propyl pyridinium chloride], in test [1], the inhibition at 3 µM came to 100%, the inhibition at 0.3 µM was 100% and the inhibition at 0.03 µM stood at 27%. Further, in the test with PAF-induced hypotension (1 hr.), the inhibition in vivo at 1 mg/kg was 30%, the inhibition in vivo at 3 mg/kg was 87% and the inhibition in vivo at 10 mg/kg stood at 92%. In the test on PAF-induced hypotension (2 hr.), the inhibition in vivo at 1 mg/kg came to 47%, the inhibition in vivo at 3 mg/kg was 92% and the inhibition in vivo at 10 mg/kg was 95%. In addition, in the test on PAF-induced hypotension (4 hr.), the inhibition in vivo at 1 mg/kg worked out at 37%, the inhibition in vivo at 3 mg/kg was determined as 89% and the inhibition in vivo at 10 mg/kg amounted to 98%. In the test on PAF-induced hypotension (6 hr.), the inhibition in vivo at 1 mg/kg worked out at 51%, the inhibition in vivo at 3 mg/kg stood at 88% and the inhibition in vivo at 10 mg/kg came out at 96%. Also, in the test with PAF-induced hypotension (8 hr.), the inhibition in vivo at 1 mg/kg stood at 31%, the inhibition in vivo at 3 mg/kg amounted to 81% and the inhibition in vivo at 10 mg/kg is 95%.
